Data: the kinase profiling compilation of Christmann-Franck et al. (2016)

Tests used:
Experiment in all cases: radiometric filter-binding kinase assay, Kinase HotSpot
Details in all cases: compound 0.5 µM; ATP 10 µM
DYRK1A (human) = DYRK1A (human) (UniProt Q13627)
MYLK2 (human) = MYLK2 (human) (UniProt Q9H1R3)
[1] = biological target: JAK1 JH1 catalytic (human) (UniProt P23458)
FGR (human) = FGR (human) (UniProt P09769)
DMPK (human) = DMPK (human) (UniProt Q09013)
PDGFRB (human) = PDGFRB (human) (UniProt P09619)
PTK2 (human) = PTK2 (human) (UniProt Q05397)
AKT3 (human) = AKT3 (human) (UniProt Q9Y243)
CSNK1D (human) = CSNK1D (human) (UniProt P48730)
MET (human) = MET (human) (UniProt P08581)
CDK5 CDK5R1 p25 (human) = CDK5 CDK5R1 p25 (human) (UniProt Q00535+Q15078)
Chain of CDK5 CDK5R1 p25 (human) (Q00535 whole entry, looked up): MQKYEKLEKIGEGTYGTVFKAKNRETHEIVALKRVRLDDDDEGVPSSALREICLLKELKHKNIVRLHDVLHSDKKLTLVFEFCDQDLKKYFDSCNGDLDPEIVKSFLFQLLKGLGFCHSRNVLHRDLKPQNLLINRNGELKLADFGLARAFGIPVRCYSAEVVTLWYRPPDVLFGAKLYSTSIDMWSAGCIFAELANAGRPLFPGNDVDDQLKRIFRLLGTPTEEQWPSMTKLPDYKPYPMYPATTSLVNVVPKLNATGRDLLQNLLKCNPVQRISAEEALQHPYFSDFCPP
Chain of CDK5 CDK5R1 p25 (human) (Q15078 whole entry, looked up): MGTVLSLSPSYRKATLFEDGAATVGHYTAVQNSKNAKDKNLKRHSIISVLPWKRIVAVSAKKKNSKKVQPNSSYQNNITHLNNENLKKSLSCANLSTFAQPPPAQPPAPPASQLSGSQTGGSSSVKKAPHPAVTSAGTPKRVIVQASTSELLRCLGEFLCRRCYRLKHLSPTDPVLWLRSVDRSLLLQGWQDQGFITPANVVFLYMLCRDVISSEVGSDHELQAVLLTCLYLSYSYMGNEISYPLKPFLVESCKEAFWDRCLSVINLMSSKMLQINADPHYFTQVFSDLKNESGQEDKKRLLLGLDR

EPHB2 (human) = EPHB2 (human) (UniProt P29323)
Chain of EPHB2 (human) (P29323 whole entry, looked up): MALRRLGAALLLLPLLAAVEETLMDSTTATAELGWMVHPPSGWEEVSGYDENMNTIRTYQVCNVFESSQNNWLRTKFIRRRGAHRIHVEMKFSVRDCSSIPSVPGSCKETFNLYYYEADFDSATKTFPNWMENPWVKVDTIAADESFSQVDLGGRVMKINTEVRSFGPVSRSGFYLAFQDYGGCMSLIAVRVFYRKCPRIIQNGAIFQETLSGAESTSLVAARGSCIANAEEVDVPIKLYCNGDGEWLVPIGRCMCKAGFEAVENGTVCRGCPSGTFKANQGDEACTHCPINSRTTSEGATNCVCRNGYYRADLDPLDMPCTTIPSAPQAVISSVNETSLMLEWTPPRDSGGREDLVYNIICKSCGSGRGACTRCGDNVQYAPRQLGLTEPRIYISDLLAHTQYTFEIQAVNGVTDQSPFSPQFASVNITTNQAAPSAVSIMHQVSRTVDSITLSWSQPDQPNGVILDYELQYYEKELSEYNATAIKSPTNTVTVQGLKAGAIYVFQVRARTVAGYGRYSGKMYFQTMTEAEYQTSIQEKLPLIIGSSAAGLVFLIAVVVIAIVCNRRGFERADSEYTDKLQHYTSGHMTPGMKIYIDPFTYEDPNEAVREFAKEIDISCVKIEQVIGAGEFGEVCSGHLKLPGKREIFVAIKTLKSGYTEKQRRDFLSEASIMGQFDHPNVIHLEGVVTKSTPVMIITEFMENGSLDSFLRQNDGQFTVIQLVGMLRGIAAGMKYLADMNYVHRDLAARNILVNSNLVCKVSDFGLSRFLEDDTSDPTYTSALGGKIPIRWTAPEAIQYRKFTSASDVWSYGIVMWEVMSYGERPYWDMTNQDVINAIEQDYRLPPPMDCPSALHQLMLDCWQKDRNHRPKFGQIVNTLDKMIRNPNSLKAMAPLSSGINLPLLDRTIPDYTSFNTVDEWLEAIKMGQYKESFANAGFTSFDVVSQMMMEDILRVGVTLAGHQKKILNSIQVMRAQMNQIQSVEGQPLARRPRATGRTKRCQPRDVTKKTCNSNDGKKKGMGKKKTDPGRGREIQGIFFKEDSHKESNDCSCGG

CSNK1E (human) = CSNK1E (human) (UniProt P49674)
Chain of CSNK1E (human) (P49674 whole entry, looked up): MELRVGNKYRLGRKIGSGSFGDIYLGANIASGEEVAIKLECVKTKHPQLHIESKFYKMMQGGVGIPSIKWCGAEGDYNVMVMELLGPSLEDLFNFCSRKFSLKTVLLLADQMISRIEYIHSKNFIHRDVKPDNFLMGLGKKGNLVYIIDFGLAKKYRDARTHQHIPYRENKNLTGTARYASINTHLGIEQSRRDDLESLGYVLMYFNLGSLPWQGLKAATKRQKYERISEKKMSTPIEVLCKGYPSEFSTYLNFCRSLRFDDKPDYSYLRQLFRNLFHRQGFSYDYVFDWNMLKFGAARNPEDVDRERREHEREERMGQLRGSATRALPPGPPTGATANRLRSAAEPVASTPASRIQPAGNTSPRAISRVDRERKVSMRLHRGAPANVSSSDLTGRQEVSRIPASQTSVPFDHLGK

RAF1 (human) = RAF1 (human) (UniProt P04049)
Chain of RAF1 (human) (P04049 whole entry, looked up): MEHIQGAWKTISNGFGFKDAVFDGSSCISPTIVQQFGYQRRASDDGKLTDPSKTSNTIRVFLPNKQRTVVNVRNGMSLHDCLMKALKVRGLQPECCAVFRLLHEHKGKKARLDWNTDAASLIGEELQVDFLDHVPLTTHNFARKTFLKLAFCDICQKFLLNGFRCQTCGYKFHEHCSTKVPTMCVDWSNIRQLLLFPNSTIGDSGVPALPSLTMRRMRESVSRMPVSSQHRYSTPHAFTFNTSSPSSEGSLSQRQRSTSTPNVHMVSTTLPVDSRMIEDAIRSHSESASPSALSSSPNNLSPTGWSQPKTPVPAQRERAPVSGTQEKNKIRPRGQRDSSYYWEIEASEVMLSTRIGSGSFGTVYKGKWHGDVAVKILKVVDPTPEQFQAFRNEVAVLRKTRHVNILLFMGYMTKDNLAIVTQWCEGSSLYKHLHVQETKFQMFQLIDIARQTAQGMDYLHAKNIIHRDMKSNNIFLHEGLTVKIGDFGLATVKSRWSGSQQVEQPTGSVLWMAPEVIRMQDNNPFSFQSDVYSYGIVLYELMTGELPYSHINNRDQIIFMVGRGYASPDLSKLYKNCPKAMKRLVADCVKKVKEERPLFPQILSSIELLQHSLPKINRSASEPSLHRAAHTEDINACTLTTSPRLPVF

TGFBR1 (human) = TGFBR1 (human) (UniProt P36897)
INSRR (human) = INSRR (human) (UniProt P14616)
Chain of INSRR (human) (P14616 whole entry, looked up): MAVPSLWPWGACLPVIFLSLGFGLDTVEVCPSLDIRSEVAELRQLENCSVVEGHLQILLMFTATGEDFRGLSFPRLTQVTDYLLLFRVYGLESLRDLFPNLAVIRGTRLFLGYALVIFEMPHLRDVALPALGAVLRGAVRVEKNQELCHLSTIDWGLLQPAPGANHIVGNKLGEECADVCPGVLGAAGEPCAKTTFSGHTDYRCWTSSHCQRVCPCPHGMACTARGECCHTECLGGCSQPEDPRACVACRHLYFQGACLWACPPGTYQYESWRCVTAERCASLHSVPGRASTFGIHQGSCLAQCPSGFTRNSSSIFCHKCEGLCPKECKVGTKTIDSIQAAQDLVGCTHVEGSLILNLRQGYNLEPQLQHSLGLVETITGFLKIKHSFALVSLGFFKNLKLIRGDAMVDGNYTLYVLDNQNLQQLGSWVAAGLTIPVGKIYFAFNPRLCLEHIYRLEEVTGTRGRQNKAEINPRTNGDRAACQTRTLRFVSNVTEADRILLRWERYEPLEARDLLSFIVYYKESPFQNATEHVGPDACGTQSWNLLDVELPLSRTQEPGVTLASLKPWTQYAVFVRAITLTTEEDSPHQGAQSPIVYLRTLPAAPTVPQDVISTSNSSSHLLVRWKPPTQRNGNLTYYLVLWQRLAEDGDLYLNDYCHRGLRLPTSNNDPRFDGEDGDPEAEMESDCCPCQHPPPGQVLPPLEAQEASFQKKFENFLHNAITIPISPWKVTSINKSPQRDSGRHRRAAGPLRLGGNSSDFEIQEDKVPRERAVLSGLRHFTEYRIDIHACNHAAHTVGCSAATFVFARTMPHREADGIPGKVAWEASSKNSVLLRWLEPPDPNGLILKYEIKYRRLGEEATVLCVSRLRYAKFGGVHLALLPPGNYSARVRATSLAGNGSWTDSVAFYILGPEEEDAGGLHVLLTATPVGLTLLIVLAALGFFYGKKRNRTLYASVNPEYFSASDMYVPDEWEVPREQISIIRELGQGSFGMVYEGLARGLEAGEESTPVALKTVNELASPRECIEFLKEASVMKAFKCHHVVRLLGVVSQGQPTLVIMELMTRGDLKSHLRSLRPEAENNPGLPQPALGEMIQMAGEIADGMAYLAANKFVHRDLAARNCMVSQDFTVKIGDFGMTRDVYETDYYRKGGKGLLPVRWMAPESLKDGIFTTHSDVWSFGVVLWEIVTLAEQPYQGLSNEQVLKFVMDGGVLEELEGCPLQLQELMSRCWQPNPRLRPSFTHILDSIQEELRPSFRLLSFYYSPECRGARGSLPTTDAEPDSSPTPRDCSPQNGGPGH

OXSR1 (human) = OXSR1 (human) (UniProt O95747)
AURKA (human) = AURKA (human) (UniProt O14965)
MAP2K2 (human) = MAP2K2 (human) (UniProt P36507)
Chain of MAP2K2 (human) (P36507 whole entry, looked up): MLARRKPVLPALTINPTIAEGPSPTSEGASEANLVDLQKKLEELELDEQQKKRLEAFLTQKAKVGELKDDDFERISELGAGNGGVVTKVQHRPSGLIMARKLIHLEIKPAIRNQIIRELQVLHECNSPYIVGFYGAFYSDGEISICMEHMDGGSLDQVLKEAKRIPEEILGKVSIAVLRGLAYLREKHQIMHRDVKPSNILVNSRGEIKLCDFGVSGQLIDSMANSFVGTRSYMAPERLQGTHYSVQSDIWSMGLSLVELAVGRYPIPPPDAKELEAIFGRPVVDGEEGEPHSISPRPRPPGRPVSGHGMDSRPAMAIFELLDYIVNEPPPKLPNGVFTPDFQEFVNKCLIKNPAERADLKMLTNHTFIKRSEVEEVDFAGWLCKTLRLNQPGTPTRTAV

MAP3K2 (human) = MAP3K2 (human) (UniProt Q9Y2U5)
CDC42BPB (human) = CDC42BPB (human) (UniProt Q9Y5S2)
MAPK11 (human) = MAPK11 (human) (UniProt Q15759)
STK4 (human) = STK4 (human) (UniProt Q13043)
JAK2 JH1 JH2 (human) = JAK2 JH1 JH2 (human) (UniProt O60674)
CSNK1A1 (human) = CSNK1A1 (human) (UniProt P48729)
PIM2 (human) = PIM2 (human) (UniProt Q9P1W9)
AURKB (human) = AURKB (human) (UniProt Q96GD4)
SGK3 (human) = SGK3 (human) (UniProt Q96BR1)
GSK3A (human) = GSK3A (human) (UniProt P49840)
PRKCD (human) = PRKCD (human) (UniProt Q05655)
FLT1 (human) = FLT1 (human) (UniProt P17948)
YES1 (human) = YES1 (human) (UniProt P07947)
FES (human) = FES (human) (UniProt P07332)
MLTK (human) = MLTK (human) (UniProt Q9NYL2)
PRKG2 (human) = PRKG2 (human) (UniProt Q13237)
SRC (human) = SRC (human) (UniProt P12931)
Chain of SRC (human) (P12931 whole entry, looked up): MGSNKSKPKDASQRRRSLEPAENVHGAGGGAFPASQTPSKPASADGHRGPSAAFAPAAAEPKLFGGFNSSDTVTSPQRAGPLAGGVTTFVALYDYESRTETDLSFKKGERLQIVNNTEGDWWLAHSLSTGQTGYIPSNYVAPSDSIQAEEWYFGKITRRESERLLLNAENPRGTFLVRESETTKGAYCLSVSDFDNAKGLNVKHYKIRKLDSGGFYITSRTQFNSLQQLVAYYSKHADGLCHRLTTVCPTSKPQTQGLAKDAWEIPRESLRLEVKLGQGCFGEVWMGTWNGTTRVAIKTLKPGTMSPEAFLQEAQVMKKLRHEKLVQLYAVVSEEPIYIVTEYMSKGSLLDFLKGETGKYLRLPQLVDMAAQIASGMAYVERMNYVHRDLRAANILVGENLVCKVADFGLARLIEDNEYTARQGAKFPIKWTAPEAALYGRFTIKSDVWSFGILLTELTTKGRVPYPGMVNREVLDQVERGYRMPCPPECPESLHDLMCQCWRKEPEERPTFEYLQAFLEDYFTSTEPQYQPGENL

RPS6KA2 KD1 KD2 (human) = RPS6KA2 KD1 KD2 (human) (UniProt Q15349)
DAPK1 (human) = DAPK1 (human) (UniProt P53355)
MAP3K11 (human) = MAP3K11 (human) (UniProt Q16584)
CAMKK1 (human) = CAMKK1 (human) (UniProt Q8N5S9)
HIPK2 (human) = HIPK2 (human) (UniProt Q9H2X6)
BLK (human) = BLK (human) (UniProt P51451)

Cn1c2ccccc2c2c3c(c4c5ccccc5n(CCC#N)c4c21)CNC3=O
residual activity (DYRK1A (human)): 46.3% | residual activity (MYLK2 (human)): 59.6% | residual activity [1]: 20.2% | residual activity (FGR (human)): 70.7% | residual activity (DMPK (human)): 101% | residual activity (PDGFRB (human)): 60.6% | residual activity (PTK2 (human)): 77% | residual activity (AKT3 (human)): 85.3% | residual activity (CSNK1D (human)): 97.5% | residual activity (MET (human)): 100% | residual activity (CDK5 CDK5R1 p25 (human)): 21.3% | residual activity (EPHB2 (human)): 77.7% | residual activity (CSNK1E (human)): 80.4% | residual activity (RAF1 (human)): 111% | residual activity (TGFBR1 (human)): 104% | residual activity (INSRR (human)): 82.5% | residual activity (OXSR1 (human)): 102% | residual activity (AURKA (human)): 56.8% | residual activity (MAP2K2 (human)): 92.5% | residual activity (MAP3K2 (human)): 2.96% | residual activity (CDC42BPB (human)): 92.1% | residual activity (MAPK11 (human)): 99.5% | residual activity (STK4 (human)): 3.73% | residual activity (JAK2 JH1 JH2 (human)): 5.58% | residual activity (CSNK1A1 (human)): 75.4% | residual activity (PIM2 (human)): 101% | residual activity (AURKB (human)): 33.1% | residual activity (SGK3 (human)): 112% | residual activity (GSK3A (human)): 35.6% | residual activity (PRKCD (human)): 41.9% | residual activity (FLT1 (human)): 63.6% | residual activity (YES1 (human)): 68.7% | residual activity (FES (human)): 78.4% | residual activity (MLTK (human)): 86.6% | residual activity (PRKG2 (human)): 28.2% | residual activity (SRC (human)): 74.8% | residual activity (RPS6KA2 KD1 KD2 (human)): 0.299% | residual activity (DAPK1 (human)): 102% | residual activity (MAP3K11 (human)): 2.19% | residual activity (CAMKK1 (human)): 19.3% | residual activity (HIPK2 (human)): 97.8%

Cc1cccc(-c2nc(C(C)(C)C)[nH]c2-c2ccc3c(c2)OCO3)n1
residual activity (DYRK1A (human)): 98.4% | residual activity (MYLK2 (human)): 99.2% | residual activity [1]: 96.1% | residual activity (BLK (human)): 98.5% | residual activity (FGR (human)): 99.9% | residual activity (DMPK (human)): 102% | residual activity (PDGFRB (human)): 106% | residual activity (PTK2 (human)): 98.1% | residual activity (AKT3 (human)): 94.7% | residual activity (CSNK1D (human)): 63.4% | residual activity (MET (human)): 82.7% | residual activity (CDK5 CDK5R1 p25 (human)): 90.1% | residual activity (EPHB2 (human)): 93% | residual activity (CSNK1E (human)): 71.5% | residual activity (RAF1 (human)): 86.2% | residual activity (TGFBR1 (human)): 35.8% | residual activity (INSRR (human)): 95.1% | residual activity (OXSR1 (human)): 103% | residual activity (AURKA (human)): 93.4% | residual activity (MAP2K2 (human)): 108% | residual activity (MAP3K2 (human)): 99.9% | residual activity (CDC42BPB (human)): 102% | residual activity (MAPK11 (human)): 93% | residual activity (STK4 (human)): 98.7% | residual activity (CSNK1A1 (human)): 96.5% | residual activity (PIM2 (human)): 99.7% | residual activity (AURKB (human)): 96.5% | residual activity (SGK3 (human)): 98% | residual activity (GSK3A (human)): 93% | residual activity (PRKCD (human)): 104% | residual activity (FLT1 (human)): 84.3% | residual activity (YES1 (human)): 97% | residual activity (FES (human)): 108% | residual activity (MLTK (human)): 97.8% | residual activity (PRKG2 (human)): 95.9% | residual activity (SRC (human)): 96% | residual activity (RPS6KA2 KD1 KD2 (human)): 96.4% | residual activity (DAPK1 (human)): 102% | residual activity (MAP3K11 (human)): 96.2% | residual activity (CAMKK1 (human)): 103% | residual activity (HIPK2 (human)): 101%

O=C1C(Cl)=C(N2C(=O)CCC2=O)C(=O)c2ccccc21
residual activity (DYRK1A (human)): 99.1% | residual activity (MYLK2 (human)): 98.1% | residual activity [1]: 107% | residual activity (FGR (human)): 102% | residual activity (DMPK (human)): 98.5% | residual activity (PDGFRB (human)): 103% | residual activity (PTK2 (human)): 98.4% | residual activity (AKT3 (human)): 105% | residual activity (CSNK1D (human)): 99.4% | residual activity (MET (human)): 109% | residual activity (CDK5 CDK5R1 p25 (human)): 87.3% | residual activity (EPHB2 (human)): 98.7% | residual activity (CSNK1E (human)): 102% | residual activity (RAF1 (human)): 93% | residual activity (TGFBR1 (human)): 101% | residual activity (INSRR (human)): 96.9% | residual activity (OXSR1 (human)): 108% | residual activity (AURKA (human)): 105% | residual activity (MAP2K2 (human)): 106% | residual activity (MAP3K2 (human)): 108% | residual activity (CDC42BPB (human)): 98.6% | residual activity (MAPK11 (human)): 105% | residual activity (STK4 (human)): 89.1% | residual activity (JAK2 JH1 JH2 (human)): 104% | residual activity (CSNK1A1 (human)): 99.2% | residual activity (PIM2 (human)): 123% | residual activity (AURKB (human)): 103% | residual activity (SGK3 (human)): 103% | residual activity (GSK3A (human)): 99.8% | residual activity (PRKCD (human)): 97.8% | residual activity (FLT1 (human)): 87.8% | residual activity (YES1 (human)): 103% | residual activity (FES (human)): 97.5% | residual activity (MLTK (human)): 97.9% | residual activity (PRKG2 (human)): 114% | residual activity (SRC (human)): 95.1% | residual activity (RPS6KA2 KD1 KD2 (human)): 104% | residual activity (DAPK1 (human)): 101% | residual activity (MAP3K11 (human)): 102% | residual activity (CAMKK1 (human)): 112% | residual activity (HIPK2 (human)): 104%
